{"source": "paper PMC12682947", "about": "“Identification of New KCNT1‐Epilepsy Drugs by In Silico, Cell, and Drosophila Modeling” (Annals of Neurology, 2025)", "key": {"[1]": {"conditions": "cited from earlier work"}, "[2]": {"experiment": "Plasma pharmacokinetics and brain uptake of antrafenine in mice (LC-MS)", "type": "in vivo, male C57BL/6 mice", "description": "Plasma pharmacokinetics and brain uptake of antrafenine was analyzed in male C57BL/6 mice. Antrafenine was administered intravenously at 1 mg/kg and 3 mg/kg into the tail vein and plasma was collected over a 24‐hour sampling period (n = 3 mice/time point). Following administration, the brain was harvested at 4 times over 24 hours and snap frozen in dry ice and subsequently stored frozen (−80°C) until analysis. The concentration of antrafenine was determined using liquid chromatography–mass spectrometry. The in vivo study was conducted using established procedures in accordance with the Australian Code of Practice for the Care and Use of Animals for Scientific Purposes, and the study protocols were reviewed and approved by the Monash Institute of Pharmaceutical Sciences Animal Ethics Committee. See Supporting Information for detailed methods and results. […]\nPlasma pharmacokinetics and brain uptake of antrafenine was analyzed in male C57BL/6 mice by the Monash University Centre for Drug Candidate Optimisation. Antrafenine was administered intravenously at 1 mg/kg and 3 mg/kg into the tail vein and plasma was collected over a 24 h sampling period (n=3 mice/time point). Following administration, brain was harvested at four times over 24 hours and snap frozen in dry ice and subsequently stored frozen (-80°C) until analysis. The concentration of antrafenine was determined using liquid chromatography–mass spectrometry (LC-MS).\n4 hrs post IV administration of 3 mg/kg Antrafenine was taken as a representative time to compare plasma and brain concentrations. At 4 hrs we determined a mean plasma concentration of 47.5 nM (+5.9 nM SD) and a mean brain concentration of 13.9 nM (+3 nM SD). […]\nPlasma pharmacokinetics and brain uptake of antrafenine\nThe systemic exposure of antrafenine was studied in non-fasted male C57BL/6 mice weighing 19.8 – 24.6 g. Mice had access to food and water ad libitum throughout the pre- and post-dose period. Antrafenine hydrochloride Mw 588.554 (Lot#10-KSS-51-2) was obtained from Toronto Research Chemicals/LGC Standards, Canada, and was dissolved in vehicle; 5% (v/v) DMSO, 25% (v/v) 40% (w/v) Trappsol in 0.9% (w/v) saline, 70% (v/v) 40 mM citrate buffered saline at pH 3.5 at concentrations of 0.5 mg/mL and 1.5 mg/mL.\nOn the day of dosing, each formulation was prepared by dissolving solid antrafenine in DMSO using vortexing and sonication prior to addition of 40% (w/v) Trappsol in 0.9% (w/v) saline followed by 40 mM citrate-buffered saline at pH 3.5. Each sample was vortexed to create a colorless / light yellow solution and was filtered through a 0.22 µm syringe filter prior to dosing.\nAdministration of antrafenine was performed by a single bolus IV injection into the tail vein of C57BL/6 male mice using a 1ml syringe with a 25G x 1” needle at a volume of 2 mL/kg. Each […]\nformulation was dosed to mice by bolus injection into the lateral tail vein (2 mL/kg) and blood samples were collected at 1, 2, 5, 15 and 30 min; 1, 2, 4, 7.5 and 24 h post-dose (n=3 mice per time point for each formulation). A maximum of three blood samples were obtained from each mouse, with plasma samples being taken via submandibular bleed (approximately 120 μL).\nBlood was collected into polypropylene Eppendorf tubes containing heparin as anticoagulant and stabilization cocktail (Complete® (containing a protease inhibitor cocktail and EDTA) and potassium fluoride) to minimize the potential for ex vivo compound degradation in blood/plasma samples. Once collected, blood samples were centrifuged immediately, supernatant plasma was removed, snap frozen in dry ice and stored at -80°C until analysis by LC-MS. In addition, at the 15 min, 1, 4 and 24 h post-dose time points, the whole brain was rapidly removed from the carcass soon after the blood collection. The whole brains were blotted to remove excess blood, placed into pre-weighed polypropylene vials and weighed. The brains were snap frozen in dry […]"}, "[3]": {"conditions": "IV 1 mg/kg, 0.25 h, individual mice, 1 mg/kg"}, "[4]": {"conditions": "IV 1 mg/kg, 1 h, individual mice, 1 mg/kg"}, "[5]": {"conditions": "IV 1 mg/kg, 4 h, individual mice, 1 mg/kg"}, "[6]": {"conditions": "IV 3 mg/kg, 0.25 h, individual mice, 3 mg/kg"}, "[7]": {"conditions": "IV 3 mg/kg, 1 h, individual mice, 3 mg/kg"}, "[8]": {"conditions": "IV 3 mg/kg, 4 h, individual mice, 3 mg/kg"}}, "note": "Values joined by “and” are separate entries in the source; they are usually repeats but may differ in a detail not shown here. Identical values can stand only once. “Also recorded” adds a separate entry of the source. Like-named read-outs stand apart in the source and are kept apart here."}
{"smiles": "O=C(OCCN1CCN(c2cccc(C(F)(F)F)c2)CC1)c1ccccc1Nc1ccnc2cc(C(F)(F)F)ccc12", "note": "[antrafenine]", "values": [{"measurement": "mean plasma concentration", "setting": "[1]; 900 mg/day (approximately 12 mg/kg for a 75 kg adult), ref Berry et al, 1983", "value": 202, "unit": "nM"}, {"measurement": "tolerability in humans", "setting": "[1]; 900 mg/day", "value": "well tolerated"}, {"measurement": "mean circulating plasma levels", "setting": "[1]; patients with osteoarthritis", "value": 0.3, "unit": "µM"}, {"measurement": "detection in brain at 24 h", "setting": "[2]; 24 h post-dose, either dose level (1 and 3 mg/kg IV)", "value": "not detected"}, {"measurement": "B:P ratio Individual", "setting": "[2]; [3]", "value": "0.027 and 0.094 and 0.028"}, {"measurement": "Plasma Concentration Individual", "setting": "[2]; [3]", "value": "233 nM and 344 nM"}, {"measurement": "concentration at 4 h", "setting": "[2]; IV 1 mg/kg, 0.25 h, individual mice, 1 mg/kg, read-out: Brain Parenchyma Concentration Individual", "value": "8.5 nM and 22 nM and 9.5 nM"}, {"measurement": "B:P ratio Individual", "setting": "[2]; [4]", "value": "0.087 and 0.046 and 0.096"}, {"measurement": "Plasma Concentration Individual", "setting": "[2]; [4]", "value": "112 nM and 104 nM"}, {"measurement": "concentration at 4 h", "setting": "[2]; IV 1 mg/kg, 1 h, individual mice, 1 mg/kg, read-out: Brain Parenchyma Concentration Individual", "value": "10.5 nM and 5.2 nM and 9.9 nM"}, {"measurement": "B:P ratio Individual", "setting": "[2]; [5]", "value": "0.46 and 0.26 and 0.17"}, {"measurement": "Plasma Concentration Individual", "setting": "[2]; [5]", "value": "14 nM and 12.9 nM"}, {"measurement": "concentration at 4 h", "setting": "[2]; IV 1 mg/kg, 4 h, individual mice, 1 mg/kg, read-out: Brain Parenchyma Concentration Individual", "value": "5.7 nM and 3.7 nM and 2.2 nM"}, {"measurement": "Plasma Concentration Individual", "setting": "[2]; IV 1 mg/kg, 24 h, individual mice, 1 mg/kg", "value": "1.6 nM and 1.8 nM"}, {"measurement": "B:P ratio Individual", "setting": "[2]; [6]", "value": "0.038 and 0.048"}, {"measurement": "Plasma Concentration Individual", "setting": "[2]; [6]", "value": "705 nM and 648 nM"}, {"measurement": "concentration at 4 h", "setting": "[2]; IV 3 mg/kg, 0.25 h, individual mice, 3 mg/kg, read-out: Brain Parenchyma Concentration Individual", "value": "26.6 nM and 30.9 nM"}, {"measurement": "B:P ratio Individual", "setting": "[2]; [7]", "value": "0.087 and 0.10"}, {"measurement": "Plasma Concentration Individual", "setting": "[2]; [7]", "value": "208 nM and 349 nM"}, {"measurement": "concentration at 4 h", "setting": "[2]; IV 3 mg/kg, 1 h, individual mice, 3 mg/kg, read-out: Brain Parenchyma Concentration Individual", "value": "40.2 nM and 18.2 nM and 35.8 nM"}, {"measurement": "B:P ratio Individual", "setting": "[2]; [8]", "value": "0.30 and 0.25"}, {"measurement": "Plasma Concentration Individual", "setting": "[2]; [8]", "value": "41.9 nM and 47.1 nM"}, {"measurement": "concentration at 4 h", "setting": "[2]; IV 3 mg/kg, 4 h, individual mice, 3 mg/kg, read-out: Brain Parenchyma Concentration Individual", "value": "12.7 nM and 11.7 nM"}, {"measurement": "Plasma Concentration Individual", "setting": "[2]; IV 3 mg/kg, 24 h, individual mice, 3 mg/kg", "value": "8.8 nM and 5.1 nM"}, {"measurement": "adverse reactions / toxic effects in mice", "setting": "[2]; IV at 1 and 3 mg/kg", "value": "No adverse reactions or compound-related side effects were observed; also recorded: No toxic effects"}, {"measurement": "apparent plasma clearance (in words)", "setting": "[2]; IV at 1 and 3 mg/kg", "value": "low"}, {"measurement": "volume of distribution (in words)", "setting": "[2]; IV at 1 and 3 mg/kg", "value": "high"}, {"measurement": "concentration at 4 h", "setting": "[2]; male, C57BL/6, mouse, brain parenchyma, iv, 3 mg/kg, IV 3 mg/kg, 4 h, individual mice, read-out: Brain Parenchyma Concentration Individual", "value": 17.3, "unit": "nM"}, {"measurement": "concentration at 4 h", "setting": "[2]; male, C57BL/6, mouse, brain parenchyma, iv, 3 mg/kg, IV 3 mg/kg, 4 h, n = 3, read-out: Brain Parenchyma Concentration Mean ± SD", "value": 13.9, "unit": "nM"}, {"measurement": "Kp at 0.25 h", "setting": "[2]; male, C57BL/6, mouse, brain, iv, 1 mg/kg, IV 1 mg/kg, 0.25 h, n = 3, read-out: B:P ratio Mean ± SD", "value": 0.05}, {"measurement": "concentration at 0.25 h", "setting": "[2]; male, C57BL/6, mouse, brain, iv, 1 mg/kg, IV 1 mg/kg, 0.25 h, n = 3, read-out: Brain Parenchyma Concentration Mean ± SD", "value": 13.3, "unit": "nM"}, {"measurement": "Kp at 1 h", "setting": "[2]; male, C57BL/6, mouse, brain, iv, 1 mg/kg, IV 1 mg/kg, 1 h, n = 3, read-out: B:P ratio Mean ± SD", "value": 0.076}, {"measurement": "concentration at 1 h", "setting": "[2]; male, C57BL/6, mouse, brain, iv, 1 mg/kg, IV 1 mg/kg, 1 h, n = 3, read-out: Brain Parenchyma Concentration Mean ± SD", "value": 8.5, "unit": "nM"}, {"measurement": "Kp at 4 h", "setting": "[2]; male, C57BL/6, mouse, brain, iv, 1 mg/kg, IV 1 mg/kg, 4 h, n = 3, read-out: B:P ratio Mean ± SD", "value": "0.3 ± 0.15"}, {"measurement": "concentration at 4 h", "setting": "[2]; male, C57BL/6, mouse, brain, iv, 1 mg/kg, IV 1 mg/kg, 4 h, n = 3, read-out: Brain Parenchyma Concentration Mean ± SD", "value": 3.9, "unit": "nM"}, {"measurement": "Kp at 0.25 h", "setting": "[2]; male, C57BL/6, mouse, brain, iv, 3 mg/kg, IV 3 mg/kg, 0.25 h, individual mice, read-out: B:P ratio Individual", "value": 0.042}]}
